Measured values: ChEMBL document CHEMBL6083275, “Discovery and evaluation of HW161023 as a potent and orally active AAK1 inhibitor” (Bioorg Med Chem Lett, 2024)
Each block holds one compound with its values, some of them ahead of it.

Legend:
[1] = molecular target: AP2-associated protein kinase 1 (Homo sapiens, UniProt Q2M2I8); assay: Inhibition of AAK1 (unknown origin)
[2] = Clearance in C57BL/6J mouse at 1 mg/kg, iv; format: ADME, organism-based; conditions: in vivo
[3] = Apparent volume of distribution in C57BL/6J mouse at 1 mg/kg, iv; format: ADME, organism-based; conditions: in vivo, read-out: Vz
[4] = AUC (0 to 24 hrs) in C57BL/6J mouse at 1 mg/kg, iv; format: ADME, organism-based; conditions: in vivo
[5] = Half-life in C57BL/6J mouse at 1 mg/kg, iv; format: ADME, organism-based; conditions: in vivo
[6] = Cmax in C57BL/6J mouse at 10 mg/kg, po; format: ADME, organism-based; conditions: in vivo
[7] = Tmax in C57BL/6J mouse at 10 mg/kg, po; format: ADME, organism-based; conditions: in vivo
[8] = AUC (0 to 24 hrs) in C57BL/6J mouse at 10 mg/kg, po; format: ADME, organism-based; conditions: in vivo
[9] = Half-life in C57BL/6J mouse at 10 mg/kg, po; format: ADME, organism-based; conditions: in vivo
[10] = Oral bioavailability in C57BL/6J mouse at 10 mg/kg; format: ADME, organism-based; conditions: in vivo
[11] = Metabolic stability in human liver microsomes assessed as half-life; format: ADME, Microsome
[12] = Metabolic stability in mouse liver microsomes assessed as half-life; format: ADME, Microsome
[13] = Metabolic stability in rat liver microsomes assessed as half-life; format: ADME, Microsome
[14] = Metabolic stability in dog liver microsomes assessed as half-life; format: ADME, Canis lupus familiaris, Microsome
[15] = Protein binding in human plasma assessed as unbound fraction; format: ADME, cell-free
[16] = Protein binding in mouse plasma assessed as unbound fraction; format: ADME, cell-free
[17] = Protein binding in rat plasma assessed as unbound fraction; format: ADME, cell-free
[18] = Protein binding in dog plasma assessed as unbound fraction; format: ADME, cell-free, Canis lupus familiaris
[19] = molecular target: Voltage-gated inwardly rectifying potassium channel KCNH2 (Homo sapiens, UniProt Q12809); assay: Inhibition of human ERG by patch clamp assay; format: toxicity
Chain of Voltage-gated inwardly rectifying potassium channel KCNH2 (Q12809 whole entry): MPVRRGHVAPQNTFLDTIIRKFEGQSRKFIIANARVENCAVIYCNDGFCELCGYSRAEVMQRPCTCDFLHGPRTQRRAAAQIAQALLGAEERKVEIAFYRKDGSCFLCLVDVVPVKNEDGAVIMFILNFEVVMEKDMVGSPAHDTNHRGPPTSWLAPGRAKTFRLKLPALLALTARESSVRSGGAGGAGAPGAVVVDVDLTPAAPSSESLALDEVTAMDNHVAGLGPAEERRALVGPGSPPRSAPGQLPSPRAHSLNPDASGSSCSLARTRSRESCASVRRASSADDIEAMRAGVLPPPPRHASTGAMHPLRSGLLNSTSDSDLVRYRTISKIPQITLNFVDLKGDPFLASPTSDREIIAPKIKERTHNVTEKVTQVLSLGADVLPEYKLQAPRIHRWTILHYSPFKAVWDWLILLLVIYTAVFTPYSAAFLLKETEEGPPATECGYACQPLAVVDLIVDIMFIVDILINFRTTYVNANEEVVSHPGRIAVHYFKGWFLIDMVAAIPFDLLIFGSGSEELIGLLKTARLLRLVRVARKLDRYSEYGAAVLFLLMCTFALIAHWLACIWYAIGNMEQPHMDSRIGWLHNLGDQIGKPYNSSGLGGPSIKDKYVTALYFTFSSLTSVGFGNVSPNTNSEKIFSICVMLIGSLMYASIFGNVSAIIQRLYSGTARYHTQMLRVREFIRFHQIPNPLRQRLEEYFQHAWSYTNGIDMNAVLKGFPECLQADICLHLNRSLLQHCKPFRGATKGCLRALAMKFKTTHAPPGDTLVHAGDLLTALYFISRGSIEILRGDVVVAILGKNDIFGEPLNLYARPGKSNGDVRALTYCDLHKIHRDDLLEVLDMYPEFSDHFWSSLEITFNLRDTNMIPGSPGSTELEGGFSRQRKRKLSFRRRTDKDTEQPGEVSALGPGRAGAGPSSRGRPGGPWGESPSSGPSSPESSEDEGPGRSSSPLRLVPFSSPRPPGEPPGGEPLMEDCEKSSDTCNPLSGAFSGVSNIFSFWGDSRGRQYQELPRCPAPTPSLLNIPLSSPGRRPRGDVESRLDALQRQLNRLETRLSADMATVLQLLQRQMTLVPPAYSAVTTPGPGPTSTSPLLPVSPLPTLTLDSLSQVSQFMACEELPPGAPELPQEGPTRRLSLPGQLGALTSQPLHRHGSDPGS

[20] = Cytotoxicity against human HepG2 cells; format: toxicity, cell-based
CYP2C9 = CYP2C9 (Homo sapiens, UniProt P11712); assay: Inhibition of CYP2C9 (unknown origin) at 10 uM relative to control; format: ADME
Chain of CYP2C9 (P11712 whole entry): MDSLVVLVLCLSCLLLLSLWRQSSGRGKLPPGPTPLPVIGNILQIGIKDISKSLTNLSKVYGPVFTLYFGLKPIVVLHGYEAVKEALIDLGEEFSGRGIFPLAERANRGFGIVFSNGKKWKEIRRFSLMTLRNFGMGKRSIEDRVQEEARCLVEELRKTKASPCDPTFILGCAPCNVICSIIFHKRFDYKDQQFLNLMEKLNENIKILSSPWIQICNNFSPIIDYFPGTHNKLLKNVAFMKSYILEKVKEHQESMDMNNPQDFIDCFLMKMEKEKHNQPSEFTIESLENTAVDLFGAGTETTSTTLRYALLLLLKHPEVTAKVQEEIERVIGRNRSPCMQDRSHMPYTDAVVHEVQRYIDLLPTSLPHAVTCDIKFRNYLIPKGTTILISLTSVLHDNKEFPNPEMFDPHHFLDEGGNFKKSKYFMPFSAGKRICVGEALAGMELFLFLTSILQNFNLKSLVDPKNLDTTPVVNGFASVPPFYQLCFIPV

CYP2D6 = CYP2D6 (Homo sapiens, UniProt P10635); assay: Inhibition of CYP2D6 (unknown origin) at 10 uM relative to control; format: ADME
Chain of CYP2D6 (P10635 whole entry): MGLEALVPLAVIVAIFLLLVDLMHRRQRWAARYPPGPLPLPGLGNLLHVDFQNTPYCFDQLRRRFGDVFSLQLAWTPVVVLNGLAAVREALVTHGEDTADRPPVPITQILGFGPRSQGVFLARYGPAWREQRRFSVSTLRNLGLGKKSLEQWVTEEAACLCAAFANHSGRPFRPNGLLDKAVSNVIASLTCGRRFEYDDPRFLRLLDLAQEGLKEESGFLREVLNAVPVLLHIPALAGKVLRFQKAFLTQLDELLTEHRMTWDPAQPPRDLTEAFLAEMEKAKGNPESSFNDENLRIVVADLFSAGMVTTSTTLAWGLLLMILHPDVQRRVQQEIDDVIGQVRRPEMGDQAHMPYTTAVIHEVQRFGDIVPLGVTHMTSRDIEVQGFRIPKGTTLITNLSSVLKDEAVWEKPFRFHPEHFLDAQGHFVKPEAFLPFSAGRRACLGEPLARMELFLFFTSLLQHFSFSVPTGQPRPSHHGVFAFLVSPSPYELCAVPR

CYP3A4 [21] = molecular target: T1, CYP3A4 (Homo sapiens, UniProt P08684); assay: Inhibition of CYP3A4 (unknown origin) using midazolam as substrate at 10 uM relative to control; format: ADME; conditions: probe midazolam
T1 sequence (P08684 whole entry): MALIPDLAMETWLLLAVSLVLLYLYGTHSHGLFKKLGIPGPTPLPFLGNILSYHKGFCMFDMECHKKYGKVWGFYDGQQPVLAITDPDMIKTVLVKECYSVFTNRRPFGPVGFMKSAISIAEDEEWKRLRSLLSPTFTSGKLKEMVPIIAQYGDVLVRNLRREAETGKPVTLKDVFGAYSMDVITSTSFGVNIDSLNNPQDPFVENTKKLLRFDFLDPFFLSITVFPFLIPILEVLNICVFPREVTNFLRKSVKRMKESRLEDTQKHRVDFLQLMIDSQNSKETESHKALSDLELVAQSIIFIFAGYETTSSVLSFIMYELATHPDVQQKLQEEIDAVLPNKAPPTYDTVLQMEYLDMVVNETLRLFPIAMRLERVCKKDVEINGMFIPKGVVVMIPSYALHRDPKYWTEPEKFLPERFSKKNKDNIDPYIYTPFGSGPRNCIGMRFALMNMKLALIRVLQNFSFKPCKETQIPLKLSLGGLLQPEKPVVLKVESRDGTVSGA

CYP3A4 [22] = molecular target: T1, CYP3A4; assay: Inhibition of CYP3A4 (unknown origin) using testosterone as substrate at 10 uM relative to control; format: ADME; conditions: probe testosterone

Chain of AP2-associated protein kinase 1 (Q2M2I8 whole entry): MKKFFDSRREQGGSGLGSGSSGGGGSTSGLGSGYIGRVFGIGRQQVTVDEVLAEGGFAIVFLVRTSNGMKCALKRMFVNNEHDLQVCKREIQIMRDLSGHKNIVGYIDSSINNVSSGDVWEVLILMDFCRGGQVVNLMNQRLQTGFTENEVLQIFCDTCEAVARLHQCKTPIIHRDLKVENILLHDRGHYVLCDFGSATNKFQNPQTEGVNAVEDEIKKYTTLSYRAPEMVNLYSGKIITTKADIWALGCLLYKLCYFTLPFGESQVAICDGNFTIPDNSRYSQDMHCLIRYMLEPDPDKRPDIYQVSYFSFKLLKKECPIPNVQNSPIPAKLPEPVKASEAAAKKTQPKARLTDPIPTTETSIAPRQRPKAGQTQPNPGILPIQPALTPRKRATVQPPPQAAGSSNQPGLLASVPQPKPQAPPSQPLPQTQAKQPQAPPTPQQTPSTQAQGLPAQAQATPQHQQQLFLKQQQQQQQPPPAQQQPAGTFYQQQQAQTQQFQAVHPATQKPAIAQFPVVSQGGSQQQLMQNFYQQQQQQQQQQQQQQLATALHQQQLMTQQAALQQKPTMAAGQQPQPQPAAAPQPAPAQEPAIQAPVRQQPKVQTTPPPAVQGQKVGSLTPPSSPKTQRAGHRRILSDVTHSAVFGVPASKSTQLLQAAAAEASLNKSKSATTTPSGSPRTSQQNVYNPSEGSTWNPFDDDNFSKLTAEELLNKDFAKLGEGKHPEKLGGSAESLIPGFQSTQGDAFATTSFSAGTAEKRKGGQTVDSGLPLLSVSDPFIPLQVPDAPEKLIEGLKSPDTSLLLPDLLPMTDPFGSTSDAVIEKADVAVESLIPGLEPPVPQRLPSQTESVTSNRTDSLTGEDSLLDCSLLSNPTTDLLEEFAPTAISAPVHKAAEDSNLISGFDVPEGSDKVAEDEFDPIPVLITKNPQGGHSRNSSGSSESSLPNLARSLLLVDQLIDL

IC50 [1]: > 0.02 µM
SMILES: CC(C)C[C@](C)(N)COc1ccc(-c2ccnc(C(F)F)c2)c2nc(C(F)F)cn12

IC50 [1]: > 0.02 µM
SMILES: CC(C)C[C@](C)(N)COc1ccc(-c2ccnc(C(F)F)c2)n2cnnc12

IC50 [1]: > 0.05 µM
SMILES: CC(C)C[C@](C)(N)COc1ccc(-c2ccnc(C(F)F)c2)c2cnccc12

Continued, compound first:

SMILES: CC(C)C[C@](C)(N)COc1ccc(-c2ccnc(C(F)F)c2)n2cncc12
clearance [2]: 45 mL/min/kg
Vd [3]: 11 L/kg
AUC(0-t) [4]: 318 ng·h/mL
half-life [5]: 2.8 h
Cmax [6]: 706 ng/mL
Tmax [7]: 1 h
AUC(0-t) [8]: 4550 ng·h/mL
half-life [9]: 3.27 h
bioavailability [10]: 143%
half-life [11]: 2.12 h
half-life [12]: 2.23 h
half-life [13]: 1.85 h
half-life [14]: 1.72 h
fraction unbound [15]: 0.23
fraction unbound [16]: 0.107
fraction unbound [17]: 0.213
fraction unbound [18]: 0.195
IC50 [19]: 30 µM
IC50 [20]: 43 µM
inhibition at 10 µM (CYP2C9): < 20%
inhibition at 10 µM (CYP2D6): 81.1%
inhibition at 10 µM (CYP3A4 [21]): < 20%
inhibition at 10 µM (CYP3A4 [22]): < 20%

SMILES: CC(C)C[C@](C)(N)COc1ccc(-c2ccnc(C(F)F)c2)n2ccnc12
IC50 [1]: > 0.02 µM
